# Assay results as given in patent publication US11406649B2, “Treatment of upper aerodigestive tract disorders and cough” (IVIEW THERAPEUTICS, INC., priority 2018, dated 2022).
# Entries after “also recorded” stand apart in the source; their conditions may differ.
# Legend:
# Oral Cavity and Pharynx [1] = test: Sensory qualities of compounds in syrup applied to base of tongue of volunteers; assay type: in vivo, human; conditions: concentration increased to 15 mg/mL, 0.8 mL per dose
# rat skin = test: Skin irritation tests on rat skin; assay type: in vivo; parameters: key to Redness after 20 μL applied topically to skin (scale of 0 to +++): scale of 0 to +++; scale of 0 to +++; scale of 0 to +++; scale of 0 to +++
# anesthetized rat [2] = test: Blood pressure and heart rate after subcutaneous injection in anesthetized rat; assay type: in vivo; conditions: injected subcutaneously
# [3] = system: upper aerodigestive tract discomfort; test: Case studies of DIPA-1-9 syrup in volunteers with upper aerodigestive tract discomfort; assay type: in vivo, human
# Source text: The rationale and data set for selecting DIPA-1-9 in syrup as a treatment agent for upper aerodigestive discomfort have been described. […] The coolness spreads to the rest of throat and intensifies, as if a spoonful of rich ice cream had been swallowed. […] The cooling sensation can be used to facilitate mucus expectoration from the airways. Also relieved is the sense of suffocation when lying down to sleep in a subject that has dyspnea.
# anesthetized rat [4] = test: In vivo transdermal activity: shaking after topical application to abdominal skin of anesthetized rat; conditions: pure compound 20 μL on abdominal skin, counted 40 min
# Method: Shaking frequency was counted for 40 min after topical application.
# The importance of water solubility for permeation was further illustrated in studies on the abdominal skin of anesthetized rat. […] The pharmacokinetic determinants of bioactivity are precise. Thus, for the avoidance of cold discomfort, DIPA-1-9 has to reach the receptors in the stratum basale but not “over-stimulate”.
# [5] = system: eyelids of patients with dry eye disorder; test: Application to eyelids of patients with dry eye disorder; assay type: in vivo, human
# Oral Cavity and Pharynx [6] = test: Sensory qualities of compounds in syrup applied to base of tongue of volunteers; assay type: in vivo, human
# Method: The DIPA compounds was 5 mg/mL in cherry-flavored syrup in a volume of 0.8 mL per dose. The sensory effect were recorded every 5 min for 1 hr.
# Tests were on four volunteers, with 3 to 5 trials per substance. Compounds were prepared in cherry-flavored syrup at 5 mg/mL and administered ˜0.8 mL per dose with a 2 mL plastic vial to the base of the tongue. The subjects asked to rate the sensations for cooling intensity, cold discomfort and adverse taste.
# The concentration of the DIPA compounds was 5 mg/mL in cherry-flavored syrup administered in a volume of 0.8 mL per dose. The sensory effect were recorded every 5 min for 1 hr.
# [7] = molecular target: TRPA1 channels (human TRPA1 gene expressed in CHO cells) (Homo sapiens (Human), UniProt O75762); test: Selectivity on TRPA1 channels; assay type: cell-based; conditions: positive control mustard oil
# Source text: (§1) In a third set, the selectivity of the test compounds on TRPM8, TRPV1 channels (human TRPV1 gene expressed in HEK293 cells) and TRPA1 channels (human TRPA1 gene expressed in CHO cells) were examined.
# (§2) The selectivity of DIPA-1-9 on TRP channel receptors, TRPM8, TRPA1 and TRPV1 is shown in FIG. 3 of Yang et. al. A novel TRPM8 agonist relieves dry eye discomfort. BMC Ophthalmology ([…]) 17: 101, and incorporated herein by reference. The applicant is a co-author of this publication.
# cloned hTRPM8 channel = cloned hTRPM8 channel (Homo sapiens (Human), UniProt Q7Z2W7); test: TRPM8 agonist activity, Fluo-8 calcium FLIPR assay (ChanTest); assay type: cell-based; conditions: L-menthol = 1.0
# Method: In the first set of data, the potency and in vitro effects of test compounds were evaluated on cloned hTRPM8 channel (encoded by the human TRPM8 gene, expressed in CHO cells) using a Fluo-8 calcium kit and a Fluorescence Imaging Plate Reader (FLIPR^TETRA™) instrument. […] Test solutions were in a HEPES-buffered saline, in 384-well plates, and placed into the FLIPR instrument (Molecular Devices Corporation, Union City, Calif., USA). […] The test cells were Chinese Hamster Ovary (CHO) cells stably transfected with human TRPM8 cDNAs. Concentration-response data were analyzed via FLIPR Control software) and fitted to a Hill equation for the EC50.
# [8] = molecular target: TRPV1 channels (human TRPV1 gene expressed in HEK293 cells) (Homo sapiens (Human), UniProt Q8NER1); test: Selectivity on TRPV1 channels; assay type: cell-based; conditions: positive control capsaicin
# Source text: as §1, §2
# oropharynx and esophagus = test: Sensory events and cold discomfort of compounds on throat, chest and body; conditions: for taste: oral cavity / tongue
# Source text: The terms “icy cold” is used to describe this adverse event in the throat.
# Most likely, the compound rapidly distributed and activated cold sensations in the eosophageal lining.
# [9] = Water solubility of 1-dialkylphosphorylalkanes; assay type: physicochemical
# Source text: The DIPA compounds are colorless liquids with a density less than water. These structures differ from those described by Rowsell and Spring U.S. Pat. No. 4,070,496 because '496 structures have their “head” (phosphine oxide group) covered by larger, more lipophilic groups. […] The applicant synthesized these analogs (which are achiral, by contrast to the structures of '496 which are >95% chiral). […] This increased water-solublility is striking (Table 3). […] The DIPA analogs are now mobile in the extracellular fluids and permeate between cells to access nerve endings in the stratum basale.
# [10] = system: respiratory syncytial virus (RSV) induced cough; test: Mouse cough model of respiratory syncytial virus infection; assay type: in vivo; conditions: 0.5 mg in 25 μL intranasally per mouse, 10 min before count
# oral cavity = test: DIPA-1-9 sprayed into the mouth with aerosol sprayer
# [11] = system: capsaicin induced coughing; test: Capsaicin induced coughing in an animal model; conditions: in vivo
# [12] = 10 subjects with cough, sprayer 5 mg/mL cherry syrup, 1 week
# [13] = 5 mg/mL in cherry-flavored syrup, ~0.8 mL
# Chain of TRPV1 channels (human TRPV1 gene expressed in HEK293 cells) (Q8NER1 whole entry): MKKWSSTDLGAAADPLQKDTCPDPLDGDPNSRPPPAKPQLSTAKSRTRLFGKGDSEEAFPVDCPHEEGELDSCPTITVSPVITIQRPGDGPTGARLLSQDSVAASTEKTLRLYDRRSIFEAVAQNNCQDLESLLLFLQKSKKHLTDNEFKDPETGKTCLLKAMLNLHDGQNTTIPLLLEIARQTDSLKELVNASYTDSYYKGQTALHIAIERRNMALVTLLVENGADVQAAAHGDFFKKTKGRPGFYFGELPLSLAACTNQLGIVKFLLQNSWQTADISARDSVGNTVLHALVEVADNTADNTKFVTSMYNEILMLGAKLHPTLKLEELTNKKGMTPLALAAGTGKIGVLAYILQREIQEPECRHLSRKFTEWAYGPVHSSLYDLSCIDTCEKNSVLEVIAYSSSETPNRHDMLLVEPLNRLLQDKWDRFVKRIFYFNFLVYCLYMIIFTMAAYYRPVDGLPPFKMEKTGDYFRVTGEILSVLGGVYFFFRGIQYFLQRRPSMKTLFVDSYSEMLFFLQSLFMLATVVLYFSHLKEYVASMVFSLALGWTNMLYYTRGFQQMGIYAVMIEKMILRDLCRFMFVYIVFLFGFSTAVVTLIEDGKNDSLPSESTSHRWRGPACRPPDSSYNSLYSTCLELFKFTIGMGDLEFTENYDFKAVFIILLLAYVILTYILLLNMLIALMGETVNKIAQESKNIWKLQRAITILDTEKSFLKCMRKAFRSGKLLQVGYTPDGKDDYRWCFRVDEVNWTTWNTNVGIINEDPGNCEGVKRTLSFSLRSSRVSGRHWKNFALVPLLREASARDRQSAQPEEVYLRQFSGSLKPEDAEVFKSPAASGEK
# Chain of TRPA1 channels (human TRPA1 gene expressed in CHO cells) (O75762 whole entry): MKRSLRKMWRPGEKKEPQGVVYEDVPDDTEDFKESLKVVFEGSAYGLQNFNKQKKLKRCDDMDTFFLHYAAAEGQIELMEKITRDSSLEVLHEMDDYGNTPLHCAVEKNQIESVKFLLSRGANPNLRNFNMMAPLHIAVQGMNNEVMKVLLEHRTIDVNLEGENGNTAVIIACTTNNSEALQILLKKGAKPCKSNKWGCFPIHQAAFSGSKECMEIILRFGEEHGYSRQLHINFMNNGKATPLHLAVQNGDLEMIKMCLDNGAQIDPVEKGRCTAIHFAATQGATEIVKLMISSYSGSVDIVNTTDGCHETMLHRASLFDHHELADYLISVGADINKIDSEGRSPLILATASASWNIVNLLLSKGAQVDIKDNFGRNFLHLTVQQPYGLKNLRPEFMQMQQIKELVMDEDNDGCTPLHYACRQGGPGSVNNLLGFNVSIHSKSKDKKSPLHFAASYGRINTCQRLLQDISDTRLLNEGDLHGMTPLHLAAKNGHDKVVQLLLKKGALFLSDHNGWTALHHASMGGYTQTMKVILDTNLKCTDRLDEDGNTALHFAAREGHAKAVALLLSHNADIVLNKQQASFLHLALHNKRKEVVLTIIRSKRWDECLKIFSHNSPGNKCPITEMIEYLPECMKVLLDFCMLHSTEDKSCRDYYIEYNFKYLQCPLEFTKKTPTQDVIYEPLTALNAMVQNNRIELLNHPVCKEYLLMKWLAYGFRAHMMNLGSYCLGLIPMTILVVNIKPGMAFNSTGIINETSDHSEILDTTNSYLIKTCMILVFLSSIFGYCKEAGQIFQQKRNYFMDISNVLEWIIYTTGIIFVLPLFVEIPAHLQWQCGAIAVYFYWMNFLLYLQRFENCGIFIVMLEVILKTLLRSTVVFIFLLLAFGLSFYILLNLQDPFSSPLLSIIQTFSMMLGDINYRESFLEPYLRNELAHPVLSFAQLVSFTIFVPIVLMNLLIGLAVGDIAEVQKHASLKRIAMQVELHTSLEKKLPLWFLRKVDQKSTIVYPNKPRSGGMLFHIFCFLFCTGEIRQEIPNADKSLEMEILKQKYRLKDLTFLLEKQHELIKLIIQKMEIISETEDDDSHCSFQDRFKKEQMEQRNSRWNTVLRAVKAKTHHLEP
# Chain of cloned hTRPM8 channel (Q7Z2W7 whole entry): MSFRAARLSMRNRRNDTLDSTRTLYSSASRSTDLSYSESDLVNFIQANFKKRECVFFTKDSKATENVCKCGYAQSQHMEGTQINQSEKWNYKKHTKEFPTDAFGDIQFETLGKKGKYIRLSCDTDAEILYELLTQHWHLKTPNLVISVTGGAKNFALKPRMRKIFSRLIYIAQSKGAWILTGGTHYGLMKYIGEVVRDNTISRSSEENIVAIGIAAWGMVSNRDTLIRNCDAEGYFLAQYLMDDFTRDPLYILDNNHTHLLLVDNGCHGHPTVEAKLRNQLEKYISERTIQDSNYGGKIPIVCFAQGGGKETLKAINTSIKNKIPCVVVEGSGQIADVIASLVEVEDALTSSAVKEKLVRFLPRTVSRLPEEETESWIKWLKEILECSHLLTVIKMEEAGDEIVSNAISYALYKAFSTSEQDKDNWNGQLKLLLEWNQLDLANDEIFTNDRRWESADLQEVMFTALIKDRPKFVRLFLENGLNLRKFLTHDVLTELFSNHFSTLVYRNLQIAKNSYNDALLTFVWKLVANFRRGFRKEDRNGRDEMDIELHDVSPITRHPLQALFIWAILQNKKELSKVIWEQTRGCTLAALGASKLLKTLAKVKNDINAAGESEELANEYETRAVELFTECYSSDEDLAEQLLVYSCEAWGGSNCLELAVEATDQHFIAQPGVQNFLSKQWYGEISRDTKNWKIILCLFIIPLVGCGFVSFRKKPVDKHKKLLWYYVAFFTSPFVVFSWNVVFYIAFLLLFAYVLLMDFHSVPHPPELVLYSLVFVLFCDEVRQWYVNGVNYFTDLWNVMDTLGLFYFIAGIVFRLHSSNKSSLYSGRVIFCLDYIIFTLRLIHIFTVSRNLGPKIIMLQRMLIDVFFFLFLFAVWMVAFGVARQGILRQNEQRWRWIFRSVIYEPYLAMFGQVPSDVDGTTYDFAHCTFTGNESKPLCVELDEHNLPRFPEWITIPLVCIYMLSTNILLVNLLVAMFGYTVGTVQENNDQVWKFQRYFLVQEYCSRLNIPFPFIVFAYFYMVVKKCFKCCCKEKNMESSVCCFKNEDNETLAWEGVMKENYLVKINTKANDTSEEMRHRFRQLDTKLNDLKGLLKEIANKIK
structure (smiles),measurement,setting,value
"CCCCCCCCCP(=O)(C(C)C)C(C)C [DIPA-1-9, 1-Di(isopropyl)-phosphinoyl-nonane]",pain or discomfort at increased concentration,Oral Cavity and Pharynx [1],did not produce icy cold or pain
same,inflammatory response,"rat skin; pure compound, 20 μL, abdominal skin of anesthetized rat",did not cause significant inflammatory response
same,Redness after 20 μL applied topically to skin (scale of 0 to +++),"rat skin; rat skin, 20 μL",0
same,irritation of shaved rat skin,rat skin; up to 20 mg/mL,not to be irritating
same,effect on blood pressure or heart rate,anesthetized rat [2],did not affect blood pressure or heart rate
same,discomfort of satiety,"[3]; 8 mg/mL in simple syrup, three over-weight individuals",instantly relieved
same,chronic cough outcome (cough variant asthma cases),"[3]; 8 mg/mL in syrup, 1 mL vials as needed",the coughing problem had disappeared; also recorded: the cough was gone
same,subjects reporting not effective,[3]; [12],3
same,subjects reporting partially effective,[3]; [12],4
same,subjects reporting very effective,[3]; [12],3
same,residual antinociceptive effect duration,[3]; application to the throat,3 h
same,time to decrease in cough frequency,"[3]; person, 8 mg/mL in cherry-flavored syrup",≤ 3 days
same,shaking after topical application,anesthetized rat [4],not active
same,irritation of eyelids,[5],not to be irritating
same,Adverse Taste,Oral Cavity and Pharynx [6]; [13],0
same,Discomfort,Oral Cavity and Pharynx [6]; [13],0
same,Sensation,Oral Cavity and Pharynx [6]; [13],cool
same,persistence of general sense of refreshment in the throat,"Oral Cavity and Pharynx [6]; human, in vivo",≥ 3 h
same,activity on TRPA1 (selectivity),[7],selective for TRPM8 and not TRPVI and TRPA1; also recorded: not on TRPV1 or TRPA1 receptors
same,Relative Potency to L-menthol,cloned hTRPM8 channel,4.0
same,activity on TRPV1 (selectivity),[8],selective for TRPM8 and not TRPVI and TRPA1; also recorded: not on TRPV1 or TRPA1 receptors
same,icy cold / pain in throat,oropharynx and esophagus; DIPA-1-9 up to 12 mg per unit,not seen; also recorded: did not produce stinging
same,taste,oropharynx and esophagus,did not have significant adverse taste
same,taste,oropharynx and esophagus; listed as DIPA1-9,does not have a strong metallic taste
same,water solubility relative to prior art / di-sec-butyl or mixed isopropyl-sec-butyl analogs,[9],10 ×
same,solubility,[9]; water,> 300 mg/mL
same,cough frequency,[10],significantly inhibited cough frequency
same,taste,oral cavity; 10 mg/mL spray,slight taste of bitterness
same,persistence of sensation of cooling,"oral cavity; 10 mg/mL spray, contents spat out",≥ 1 h
same,cooling of oral cavity,"oral cavity; 10 mg/mL, 0.07 mL per activation, 3 activations",robust cooling of the oral cavity
same,capsaicin induced coughing,[11],inhibited capsaicin induced coughing
